*1 amine or outer side, *2 acyl side, *3 side chain or, on linkers, in order; H or OH if unused. Where a SMILES comes first, the peptide text is derived from it. [ ]: non-standard residue; d: D form. The star is where a group is joined. Dolaproine = CO[C@@H]([C@@H]1CCCN1)[C@@H](C)C(=O)O; Hexanoyl(6-maleimido) = O=C1C=CC(=O)N1CCCCCC(=O)*; Dil = CC[C@H](C)[C@H](NC)[C@@H](CC(=O)O)OC; PABC = O=C(OCc1ccc(N[*:1])cc1)[*:2]; Cit = NC(=O)NCCC[C@H](N)C(=O)O; NMeV = CN[C@H](C(=O)O)C(C)C; X1 = c1cnc2c(CCN*)cccc2c1; X2 = c1cc(CCN*)c2cccnc2c1; X3 = c1ccc2c(CCN*)ccnc2c1; X4 = c1ccc2nc(CCN*)ccc2c1
Key:
Assay type in all cases: functional
KM-20L2 = assay: Growth inhibition of human KM20L2 cells after 48 hrs by SRB assay; conditions: KM-20L2, 48 h
NCI-H460 = assay: Growth inhibition of human NCI-H460 cells after 48 hrs by SRB assay; conditions: NCI-H460, 48 h
BXPC-3 = assay: Growth inhibition of human BxPC3 cells after 48 hrs by SRB assay; conditions: BXPC-3, 48 h
DU-145 = assay: Growth inhibition of human DU145 cells after 48 hrs by SRB assay; conditions: DU-145, 48 h
MCF7 = assay: Growth inhibition of human MCF7 cells after 48 hrs by SRB assay; conditions: MCF7, 48 h
SF-268 = assay: Growth inhibition of human SF268 cells after 48 hrs by SRB assay; conditions: SF-268, 48 h

GI50 (NCI-H460) | GI50 (BXPC-3) | GI50 (DU-145) | GI50 (MCF7) | SMILES | GI50 (KM-20L2) | GI50 (SF-268)
247 nM | 299 nM | 4.49 nM | 5.23 nM | CC[C@H](C)[C@@H]([C@@H](CC(=O)N1CCC[C@H]1[C@H](OC)[C@@H](C)C(=O)NCCc1cccc2ncccc12)OC)N(C)C(=O)[C@@H](NC(=O)[C@H](C(C)C)N(C)C(=O)OCc1ccc(NC(=O)[C@H](CCCNC(N)=O)NC(=O)[C@@H](NC(=O)CCCCCN2C(=O)C=CC2=O)C(C)C)cc1)C(C)C ({Hexanoyl(6-maleimido)}-V[Cit][PABC][NMeV]V[Dil][Dolaproine]-X2) | 11.2 nM | 2.99 nM
37.9 nM | 27.1 nM | 0.812 nM | 0.298 nM | CC[C@H](C)[C@@H]([C@@H](CC(=O)N1CCC[C@H]1[C@H](OC)[C@@H](C)C(=O)NCCc1cccc2ncccc12)OC)N(C)C(=O)[C@@H](NC(=O)[C@@H](NC)C(C)C)C(C)C (H-[NMeV]V[Dil][Dolaproine]-X2) | 0.582 nM | 0.311 nM
67.7 nM | 67.7 nM | 0.135 nM | 0.149 nM | CC[C@H](C)[C@@H]([C@@H](CC(=O)N1CCC[C@H]1[C@H](OC)[C@@H](C)C(=O)NCCc1ccnc2ccccc12)OC)N(C)C(=O)[C@@H](NC(=O)[C@@H](NC)C(C)C)C(C)C (H-[NMeV]V[Dil][Dolaproine]-X3) | 0.596 nM | 0.176 nM
449 nM | 449 nM | 5.98 nM | 15 nM | CC[C@H](C)[C@@H]([C@@H](CC(=O)N1CCC[C@H]1[C@H](OC)[C@@H](C)C(=O)NCCc1cccc2cccnc12)OC)N(C)C(=O)[C@@H](NC(=O)[C@H](C(C)C)N(C)C(=O)OCc1ccc(NC(=O)[C@H](CCCNC(N)=O)NC(=O)[C@@H](NC(=O)CCCCCN2C(=O)C=CC2=O)C(C)C)cc1)C(C)C ({Hexanoyl(6-maleimido)}-V[Cit][PABC][NMeV]V[Dil][Dolaproine]-X1) | 23.9 nM | 3.52 nM
14.9 nM | 11.5 nM | 0.07 nM | 0.06 nM | CC[C@H](C)[C@@H]([C@@H](CC(=O)N1CCC[C@H]1[C@H](OC)[C@@H](C)C(=O)NCCc1cccc2cccnc12)OC)N(C)C(=O)[C@@H](NC(=O)[C@@H](NC)C(C)C)C(C)C (H-[NMeV]V[Dil][Dolaproine]-X1) | 0.203 nM | 0.06 nM
2620 nM | 1570 nM | 31.4 nM | 30.7 nM | CC[C@H](C)[C@@H]([C@@H](CC(=O)N1CCC[C@H]1[C@H](OC)[C@@H](C)C(=O)NCCc1ccnc2ccccc12)OC)N(C)C(=O)[C@@H](NC(=O)[C@H](C(C)C)N(C)C(=O)OCc1ccc(NC(=O)[C@H](CCCNC(N)=O)NC(=O)[C@@H](NC(=O)CCCCCN2C(=O)C=CC2=O)C(C)C)cc1)C(C)C ({Hexanoyl(6-maleimido)}-V[Cit][PABC][NMeV]V[Dil][Dolaproine]-X3) | 38.9 nM | 29.9 nM
392 nM | 81.2 nM | 12.2 nM | 4.06 nM | CC[C@H](C)[C@@H]([C@@H](CC(=O)N1CCC[C@H]1[C@H](OC)[C@@H](C)C(=O)NCCc1ccc2ccccc2n1)OC)N(C)C(=O)[C@@H](NC(=O)[C@@H](NC)C(C)C)C(C)C (H-[NMeV]V[Dil][Dolaproine]-X4) | 3.24 nM | 1.22 nM

SMILES | GI50 (NCI-H460) | GI50 (BXPC-3) | GI50 (DU-145) | GI50 (MCF7) | GI50 (KM-20L2) | GI50 (SF-268)
CC[C@H](C)[C@@H]([C@@H](CC(=O)N1CCC[C@H]1[C@H](OC)[C@@H](C)C(=O)N[C@@H](Cc1ccccc1)c1nccs1)OC)N(C)C(=O)[C@@H](NC(=O)[C@H](C(C)C)N(C)C)C(C)C [DOLASTATIN-10] | 0.229 nM | 0.051 nM | 0.007 nM | 0.005 nM | 0.01 nM | 0.006 nM
